Source: US12534469B2 (CHILDREN'S HOSPITAL MEDICAL CENTER, priority 2020, dated 2026)
Positions count from the first letter of the chain named. Where two headings read alike, the source gives them in different places.

What was measured:
[1] = target: T1, FLT3 ITD, F691L (Homo sapiens, UniProt P36888, F691L/ITD); assay: DiscoverX KINOMEscan competition binding assay, FLT3 ITD, F691L
T1 sequence (P36888 564-993 F691L): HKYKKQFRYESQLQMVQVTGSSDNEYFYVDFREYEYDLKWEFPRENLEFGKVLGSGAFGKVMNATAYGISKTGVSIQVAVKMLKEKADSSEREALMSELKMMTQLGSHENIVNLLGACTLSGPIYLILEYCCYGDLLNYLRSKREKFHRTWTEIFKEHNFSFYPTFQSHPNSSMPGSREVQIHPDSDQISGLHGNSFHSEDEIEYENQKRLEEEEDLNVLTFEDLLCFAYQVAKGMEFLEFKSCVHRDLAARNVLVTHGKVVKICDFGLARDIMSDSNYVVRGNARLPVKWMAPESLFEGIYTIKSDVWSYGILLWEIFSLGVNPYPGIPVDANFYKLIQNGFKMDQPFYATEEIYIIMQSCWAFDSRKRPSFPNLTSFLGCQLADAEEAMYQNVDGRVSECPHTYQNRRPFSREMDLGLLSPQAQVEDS
Description: (§1) Kinase binding data were obtained for various exemplary compounds prepared according to Examples 1-25 using the DiscoverX KINOMEscan® active site-directed competition binding site-directed assay protocol described below. […] As a result, the data report thermodynamic interaction affinities (Kd values), rather than IC50 values that are dependent on ATP concentrations. The assay uses a DNA-tagged version of the protein kinase, and an immobilized ligand bound to a solid support. Compounds that directly or indirectly prevent kinase binding to the immobilized ligand reduce the amount of kinase captured on the solid support, which is detected using an ultra-sensitive qPCR method. Affinity constants reported from the assay have been reported to be independent of the immobilized ligand used that is coupled to the solid support (See supplemental information in Fabian, M. A. et. al., (2005) Nat. Biotechnol. 23, 329-336; Wodicka, L. M. et. al., (2010) Chem. Biol. 17, 1241-1249.)
(§2) Kinase-tagged T7 phage strains were prepared in an E. coli host derived from the BL21 strain. E. coli were grown to log-phase and infected with T7 phage and incubated with shaking at 32° C. until lysis. The lysates were centrifuged and filtered to remove cell debris. The remaining kinases were produced in HEK-293 cells and subsequently tagged with DNA for qPCR detection. […] The liganded beads were blocked with excess biotin and washed with blocking buffer (SeaBlock (Pierce), 1% BSA, 0.05% Tween 20, 1 mM DTT) to remove unbound ligand and to reduce non-specific binding. […] Test compounds were prepared as 111× stocks in 100% DMSO. Kds were determined using an 11-point 3-fold compound dilution series with three DMSO control points. […] The compounds were then diluted directly into the assays such that the final concentration of DMSO was 0.9%. All reactions were performed in polypropylene 384-well plates. Each was a final volume of 0.02 mL. […] The kinase concentration in the eluates was measured by qPCR.
(§3) Binding constants (Kds) were calculated with a standard dose-response curve using the Hill equation. […]

[2] = target: T2, FLT3 ITD, D835V (Homo sapiens, UniProt P36888, D835V/ITD); assay: DiscoverX KINOMEscan competition binding assay, FLT3 ITD, D835V
T2 sequence (P36888 564-993 D835V): T1 sequence (P36888 564-993 F691L) with L128F, D272V
Description: as §1, §2, §3

[3] = target: T3, FLT3 Autoinh. (Homo sapiens, UniProt P36888); assay: DiscoverX KINOMEscan competition binding assay, FLT3 Autoinh.
T3 construct: purchased DiscoverX (KINOMEscan); host or cells: E. coli (T7 phage) or HEK-293
T3 sequence (P36888 564-993 limits assumed): T1 sequence (P36888 564-993 F691L) with L128F
Description: as §1, §2, §3

| Kd ([1]; read-out: FLT3 ITD, F691L Kd) [nM] | Kd ([2]; read-out: FLT3 ITD, D835V Kd) [nM] | Kd [3] [nM] | Kd [1] [nM] | Kd [2] [nM] | Compound |
| --- | --- | --- | --- | --- | --- |
| 0.14 | 0.045 | 17 |  |  | COc1cc2ncc(-c3cccc(N[C@H]4CNCC[C@@H]4F)n3)n2nc1C1CC1 [Compound 102, 6-(6-cyclopropyl-7-methoxyimidazo[1,2-b]pyridazin-3-yl)-N-((3S,4S)-4-fluoropiperidin-3-yl)pyridin-2-amine] |
|  |  | 11 | 0.37 | 0.07 | COc1cc2ncc(-c3cccc(N[C@H]4CNC[C@@H]4F)n3)n2nc1C1CC1 [Compound 96, 6-(6-cyclopropyl-7-methoxyimidazo[1,2-b]pyridazin-3-yl)-N-((3S,4S)-4-fluoropyrrolidin-3-yl)pyridin-2-amine] |
| 0.19 | 0.034 | 13 |  |  | COc1cc2ncc(-c3cccc(N[C@@H]4CCNC4)n3)n2nc1C1CC1 [Compound 97, (R)-6-(6-cyclopropyl-7-methoxyimidazo[1,2-b]pyridazin-3-yl)-N-(pyrrolidin-3-yl)pyridin-2-amine] |
